Experimental data reported in the supplement of paper PMC7695840.
“And” between values parts separate entries of the source, which are not always exact repeats. Equal entries are not always repeated. Structures can show the parent of a compound that is named as a salt.

Assays:
[1] = test system: Staphylococcus aureus MW2 (mecA+); assay: IC50 (growth, competition assay); conditions: cefoxitin: subinhibitory
How it was run: (§1)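 Pre-induced, 1:1-mixed fluorescent S. aureus MW2 mecA+ and ΔmecA strains were grown 20 h at 37 °C, 90% humidity, unshaken, in LB with a daily-set subinhibitory cefoxitin dose, in 1536-well plates. Compounds were given on five- or nine-point 2-fold gradients, in two dye-swapped replicates. DsRed (540/590) and GFP (485/520) were scaled per plate between single-strain control medians, with No Treatment then set to 0.5. Per-strain IC50 was the dose halving the No Treatment signal, or the maximal signal.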

[2] = test system: Staphylococcus aureus MW2 delta-mecA (mecA-); assay: IC50 (growth, competition assay); conditions: cefoxitin: subinhibitory
How it was run: as §1

SMILES	IC50 ([1]; fluorescent label: DsRed)	IC50 ([1]; fluorescent label: GFP)	IC50 ([2]; fluorescent label: DsRed)	IC50 ([2]; fluorescent label: GFP)
COc1cc2c(Oc3ccc(NC(=O)C4(C(=O)Nc5ccc(F)cc5)CC4)cc3F)ccnc2cc1OCCCN1CCOCC1	41.9 µM	57.4 µM	13.2 µM	12.1 µM
FC(F)(F)c1ccc(Nc2nc3ccc(Oc4ccnc(-c5ncc(C(F)(F)F)[nH]5)c4)cc3[nH]2)cc1 [Raf265 derivative]	19.6 µM	23.4 µM	< 9.85 µM	< 9.85 µM
C[C@H]1COc2c(N3CCN(C)CC3)c(F)cc3c(=O)c(C(=O)O)cn1c23 [Levofloxacin (Levaquin)]	< 0.498 µM	< 0.498 µM	< 0.498 µM	< 0.498 µM
O=c1[nH]cc(F)c(=O)[nH]1 [CARAC]	< 9.85 µM	< 9.85 µM	< 9.85 µM	< 9.85 µM
OC(CNCC(O)C1CCc2cc(F)ccc2O1)C1CCc2cc(F)ccc2O1 (stereo not drawn) [Nebivolol]	108 µM	111 µM	35 µM	19.6 µM
CCCCCCCc1ccc(CCc2cccc(O)c2C(=O)O)cc1 [MG 149]	13.6 µM	14.5 µM	< 9.85 µM	< 9.85 µM
CN[C@H]1CC[C@@H](c2ccc(Cl)c(Cl)c2)c2ccccc21 [ZOLOFT]	103 µM	106 µM	31.1 µM	15.5 µM
O=Nc1ccc2oc(=O)ccc2c1 [6-Nitroso-1,2-benzopyrone]	53.1 µM	57.9 µM	31 µM	32.1 µM
CC1(C)C(=O)N(CCN2CCC(C(=O)c3ccc(F)cc3)CC2)c2ccccc21	38.6 µM	98.8 µM	54.1 µM	16.1 µM
Cc1oc(=O)oc1CN1CCN(c2cc3c(cc2F)c(=O)c(C(=O)O)c2n3C(C)S2)CC1 (stereo not drawn) [QUISNON]	< 9.85 µM	< 9.85 µM	< 9.85 µM	< 9.85 µM
O=C(O)c1cn(-c2ccc(F)cc2)c2cc(N3CCNCC3)c(F)cc2c1=O [SARAFLOX]	< 9.85 µM	< 9.85 µM	< 9.85 µM	< 9.85 µM
NC[C@@H]1O[C@H](C23CC4CC(CC(C4)C2)C3)Cc2c1ccc(O)c2O	34.9 µM	56 µM	34.6 µM	54.9 µM
CC(C)(C)c1nc(-c2cccc(NS(=O)(=O)c3c(F)cccc3F)c2F)c(-c2ccnc(N)n2)s1	35 µM	79.2 µM	< 9.85 µM	< 9.85 µM
O=C(N[C@@H](Cc1ccccc1)C(=O)CCl)OCc1ccccc1 [Z-L-Phe chloromethyl ketone]	< 9.85 µM	< 9.85 µM	< 9.85 µM	< 9.85 µM
c1ccc(-c2ccc(C(c3ccccc3)n3ccnc3)cc2)cc1 (stereo not drawn) [MYCOSPOR]	15.5 µM	19.1 µM	16.8 µM	10.5 µM
C=C1C(=O)[C@]23[C@H](CC[C@@H]1[C@@H]2O)[C@]12CO[C@@]3(O)[C@H](O)[C@H]1C(C)(C)CC[C@@H]2O [RUBESCENSIN A]	36.3 µM	84.5 µM	17.9 µM	17.2 µM
O=c1c(O)c(-c2ccc(O)c(O)c2)oc2cc(O)cc(O)c12 [Quercetin dihydrate]	56.9 µM	55.7 µM	18.4 µM	10.4 µM
C[C@H]1COc2c(N3CCN(C)CC3)c(F)cc3c(=O)c(C(=O)O)cn1c23 [LEVAQUIN]	< 9.85 µM	< 9.85 µM	< 9.85 µM	< 9.85 µM
CO/N=C1\CN(c2nc3c(cc2F)c(=O)c(C(=O)O)cn3C2CC2)CC1CN (stereo not drawn) [FACTIVE]	< 9.85 µM	< 9.85 µM	< 9.85 µM	< 9.85 µM
CC[C@H]1OC(=O)[C@H](C)[C@@H](O[C@H]2C[C@@](C)(OC)[C@@H](O)[C@H](C)O2)[C@H](C)[C@@H](O[C@@H]2O[C@H](C)C[C@H](N(C)C)[C@H]2O)[C@](C)(O)C[C@@H](C)CN(C)[C@H](C)[C@@H](O)[C@]1(C)O [ZITHROMAX]	< 9.85 µM	15.7 µM	< 9.85 µM	< 9.85 µM
O=C(O[C@@H]1Cc2c(O)cc(O)cc2O[C@@H]1c1cc(O)c(O)c(O)c1)c1cc(O)c(O)c(O)c1 [EPIGALLOCATECHIN-3-MONOGALLATE]	45.2 µM	63.3 µM	< 9.85 µM	< 9.85 µM

SMILES	IC50 ([1]; fluorescent label: DsRed)	IC50 ([1]; fluorescent label: GFP)	IC50 ([2]; fluorescent label: DsRed)	IC50 ([2]; fluorescent label: GFP)
O=Nc1c(-c2c(O)[nH]c3cc(Br)ccc23)[nH]c2ccccc12 [BIO]	< 9.85 µM	< 9.85 µM	< 9.85 µM	< 9.85 µM
Cc1cc(OCCCS(C)(=O)=O)cc(C)c1-c1cccc(COc2ccc3c(c2)OC[C@H]3CC(=O)O)c1 [TAK-875]	< 9.85 µM and 22.5 µM	14.9 µM and 29.2 µM	< 9.85 µM	< 9.85 µM and 12.2 µM
Cc1ccc(C(=O)c2cc(O)c(O)c([N+](=O)[O-])c2)cc1 [Tolcapone]	< 9.85 µM	14.4 µM	< 9.85 µM	< 9.85 µM
O=C(O)c1ccc(-n2nc(-c3ccccc3O)nc2-c2ccccc2O)cc1 [Deferasirox (Exjade)]	91.6 µM	57.1 µM	22.6 µM	24.3 µM
Oc1ccc(Cl)c2cccnc12 [CLOXYQUIN]	26.9 µM	89.7 µM	33.8 µM	< 9.85 µM
CN(C)c1ccc(O)c2c1C[C@H]1C[C@H]3[C@H](N(C)C)C(O)=C(C(N)=O)C(=O)[C@@]3(O)C(O)=C1C2=O [Minocycline hydrochloride]	< 9.85 µM	< 9.85 µM	< 9.85 µM	< 9.85 µM
O=C1[C@H](CC[C@H](O)c2ccc(F)cc2)[C@@H](c2ccc(O)cc2)N1c1ccc(F)cc1 [ZETIA]	103 µM	105 µM	25.9 µM	24.8 µM
Cc1cc(SCc2sc(-c3ccc(C(F)(F)F)c(F)c3)nc2C)ccc1OCC(=O)O [GW0742]	11.6 µM	15.1 µM	< 9.85 µM	< 9.85 µM
CSc1ccc2c(c1)C(N1CCN(C)CC1)Cc1ccccc1S2 (stereo not drawn) [Methiothepin mesylate]	56.7 µM	55.3 µM	21.3 µM	19.1 µM
CC(=O)OCC1=C(C(=O)O)N2C(=O)[C@@H](NC(=O)Cc3cccs3)[C@H]2SC1 [KEFLIN]	< 9.85 µM	< 9.85 µM	< 9.85 µM	< 9.85 µM
CSc1ccc2c(c1)N(CCC1CCCCN1C)c1ccccc1S2 (stereo not drawn) [Thioridazine hydrochloride]	57.7 µM	50.3 µM	< 9.85 µM	14.8 µM
CCc1cc2c(cc1CC)CC(NC[C@H](O)c1ccc(O)c3[nH]c(=O)ccc13)C2 [Indacaterol Maleate]	71.1 µM	91.4 µM	53.8 µM	32.2 µM
C/C(=C\C(=O)Nc1ccccc1C(=O)O)c1ccc2ccccc2c1 [BIBR1532]	< 9.85 µM	12.3 µM	< 9.85 µM	< 9.85 µM
O=C(Nc1ccccc1)Nc1ccc(-c2ccc(C(=O)[C@@H]3CCC[C@H]3C(=O)O)cc2)cc1	22.7 µM	41.4 µM	< 9.85 µM	< 9.85 µM
CC/C(=C(\c1ccccc1)c1ccc(OCCN(C)C)cc1)c1ccccc1 [Tamoxifen]	14.8 µM	14.9 µM	12.2 µM	< 9.85 µM
CO/N=C(\C(=O)N[C@@H]1C(=O)N2C(C(=O)O)=C(CSc3nc(=O)c(O)nn3C)CS[C@H]12)c1csc(N)n1 [ROCEPHIN]	> 150 µM	> 150 µM	< 9.85 µM	< 9.85 µM
CCC(C)(C)C(=O)O[C@H]1C[C@@H](C)C=C2C=C[C@H](C)[C@H](CC[C@@H]3C[C@@H](O)CC(=O)O3)[C@H]21 [ZOCOR]	129 µM	115 µM	47.8 µM	57.6 µM
OC(c1cc(C(F)(F)F)nc2c(C(F)(F)F)cccc12)C1CCCCN1 (stereo not drawn) [LARIAM]	< 9.85 µM	< 9.85 µM	< 9.85 µM	< 9.85 µM
CC1(C)S[C@@H]2[C@H](NC(=O)[C@H](NC(=O)N3CCNC3=O)c3ccccc3)C(=O)N2[C@H]1C(=O)O [AZLIN]	32.2 µM	47.2 µM	< 9.85 µM	< 9.85 µM
C[C@H]1c2cccc(O)c2C(=O)C2=C(O)[C@]3(O)C(=O)C(C(N)=O)=C(O)[C@@H](N(C)C)[C@@H]3[C@@H](O)[C@@H]21 [Doxycycline hydrochloride]	< 9.85 µM	< 9.85 µM	< 9.85 µM	< 9.85 µM
O=c1oc2ccccc2c(O)c1Cc1c(O)c2ccccc2oc1=O [DICUMOL]	11.6 µM	18.2 µM	14 µM	27 µM

SMILES	IC50 ([1]; fluorescent label: DsRed)	IC50 ([1]; fluorescent label: GFP)	IC50 ([2]; fluorescent label: DsRed)	IC50 ([2]; fluorescent label: GFP)
Cn1sc(=O)n(Cc2ccccc2)c1=O [TDZD-8]	< 9.85 µM	< 9.85 µM	< 9.85 µM	< 9.85 µM
CCCCCCCCCCCCCCCC(=O)OC(CC(=O)O)C[N+](C)(C)C (racemic) [Palmitoyl-DL-Carnitine chloride]	12.1 µM	14.3 µM	< 9.85 µM	< 9.85 µM
COc1c(N2C[C@@H]3CCCN[C@@H]3C2)c(F)cc2c(=O)c(C(=O)O)cn(C3CC3)c12 [AVELOX]	< 9.85 µM	< 9.85 µM	< 9.85 µM	< 9.85 µM
Clc1ccc(C(c2ccc(Cl)cc2)[n+]2ccn(CC(OCc3ccc(Cl)cc3Cl)c3ccc(Cl)cc3Cl)c2)cc1 (stereo not drawn) [Calmidazolium chloride]	< 9.85 µM	< 9.85 µM	< 9.85 µM	< 9.85 µM
CO/N=C(\C(=O)N[C@@H]1C(=O)N2C(C(=O)OCOC(=O)C(C)(C)C)=C(/C=C\c3scnc3C)CS[C@H]12)c1csc(N)n1 [SPECTRACEF]	32.9 µM	18.7 µM	< 9.85 µM	< 9.85 µM
O=C(/C=C/c1ccc(O)cc1)c1ccc(O)cc1O [Isoliquiritigenin]	130 µM	> 150 µM	27.5 µM	17 µM
CO/N=C(\C(=O)N[C@@H]1C(=O)N2C(C(=O)O)=C(COC(N)=O)CS[C@H]12)c1ccco1 [ZINACEF]	21.3 µM	19.3 µM	< 9.85 µM	< 9.85 µM
Nc1ccc(/N=N/c2ccccc2)c(N)n1 [PYRIDIUM]	> 150 µM	> 150 µM	> 150 µM	> 150 µM
CC1=C(O)C(=O)C=C2C1=CC=C1[C@@]2(C)CC[C@@]2(C)[C@@H]3C[C@](C)(C(=O)O)CC[C@]3(C)CC[C@]12C [CELASTROL]	< 9.85 µM	< 9.85 µM	< 9.85 µM	< 9.85 µM
O=C1OC(CN2CCOCC2)CN1/N=C/c1ccc([N+](=O)[O-])o1 (stereo not drawn) [FURALTADONE]	17.8 µM	15.1 µM	11.4 µM	18.5 µM
CCN(CC)C(=S)SSC(=S)N(CC)CC [ANTABUSE]	31.7 µM	33.4 µM	12.3 µM	11.1 µM
CC(=O)OCC1=C(C(=O)O)N2C(=O)[C@@H](NC(=O)CSc3ccncc3)[C@H]2SC1 [CEFADYL]	< 9.85 µM	< 9.85 µM	< 9.85 µM	< 9.85 µM
COc1ccc(NS(=O)(=O)c2sc3ccc(Cl)cc3c2C)cc1N1CCNCC1	102 µM	108 µM	22.7 µM	16.5 µM
Cc1nc2sccn2c(=O)c1CCN1CCC(=C(c2ccc(F)cc2)c2ccc(F)cc2)CC1 [Ritanserin]	57.5 µM	56.9 µM	17.3 µM	29 µM
CO[C@@]1(NC(=O)C(C(=O)O)c2ccc(O)cc2)C(=O)N2C(C(=O)O)=C(CSc3nnnn3C)CO[C@@H]21 (stereo partly drawn) [MOXAM]	26.2 µM	18.5 µM	< 9.85 µM	< 9.85 µM
CN(C)[C@@H]1C(O)=C(C(N)=O)C(=O)[C@@]2(O)C(O)=C3C(=O)c4c(O)ccc(Cl)c4[C@@](C)(O)[C@H]3C[C@@H]12 [AUREOMYCIN]	< 9.85 µM	< 9.85 µM	< 9.85 µM	< 9.85 µM
CN1C[C@@H]2C[C@H]1CN2c1cc2c(cc1F)c(=O)c(C(=O)O)cn2C1CC1 [Danofloxacin Mesylate]	< 9.85 µM	< 9.85 µM	< 9.85 µM	< 9.85 µM
CCn1cc(C(=O)O)c(=O)c2cc(F)c(N3CCN(C)CC3)cc21 [PEFLOXACINE MESYLATE]	< 9.85 µM	< 9.85 µM	< 9.85 µM	< 9.85 µM
O=C(Nc1ncc([N+](=O)[O-])s1)c1ccc([N+](=O)[O-])c(Cl)c1	< 9.85 µM	< 9.85 µM	13.2 µM	15.2 µM
COc1c(N2C[C@@H]3CCCN[C@@H]3C2)c(F)cc2c(=O)c(C(=O)O)cn(C3CC3)c12 [Moxifloxacin hydrochloride]	< 0.498 µM	< 0.498 µM	< 0.498 µM	< 0.498 µM
